In patent US9227971B2, “Pyrazolo[1,5-a]pyrimidine compounds as mTOR inhibitors” (Merck Sharp & Dohme Corp., priority 2010, dated 2016):
pIC50: −log10 of the molar value. Where two headings read alike, the source gives them in different places.

What was measured:
[1] = tested on: phosphorylated AKT Ser473 (pAKT S473), mTORC2 activity, PC3 cells; assay: mTOR target engagement assay, immunofluorescent cell-based, pAKT S473 readout (mTORC2 activity)
In short: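 After blocking, cells were stained overnight at 4 °C with anti-pAKT S473 antibody, then a fluorescent secondary; inhibition was read as reduced fluorescence intensity.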

[2] = tested on: phosphorylated 4E-BP1 Thr37/46 (p4E-BP1 Thr37/46), mTORC1 activity, PC3 cells; assay: mTOR target engagement assay, immunofluorescent cell-based, p4E-BP1 Thr37/46 readout (mTORC1 activity); conditions: read-out: p4E-BP1 Thr37/46 IC50
In short: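 Cell-based immunofluorescence in PC3 cells: serially diluted compounds (0.25% DMSO, 5% FBS) applied for ninety minutes at 37° C before fixation and overnight 4° C staining of p4E-BP1 Thr37/46. Untreated DMSO wells set maximal phosphorylation; IC50 obtained by logistic fitting.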

[3] = Homo sapiens, PC-3, PC3 cells, compound treatment ninety minutes at 37° C.
[4] = Homo sapiens, PC-3, Table 3-1, PC3 cells

**Q.** How did the pIC50 [1, 3] turn out when `COc1cc(F)cc2cc(-c3cnn4c(N)c(C(C)=O)c([C@@H]5C[C@H]6CC[C@@H](C5)N6C(=O)CO)nc34)cnc12` [Compound 1.1.183, 1-((1R,3r,5S)-3-(6-acetyl-7-amino-3-(6-fluoro-8-methoxyquinolin-3-yl)pyrazolo[1,5-a]pyrimidin-5-yl)-8-azabicyclo[3.2.1]octan-8-yl)-2-hydroxyethanone] was run?
**A.** 7.00 to 9.00

**Q.** What about the pIC50 [2, 3] of the same compound?
**A.** 6.00 to 7.00

**Q.** Which results are given for `N#Cc1ncc(-c2cnn3c(N)c(C4CC4)c([C@@H]4C[C@H]5CC[C@@H](C4)N5C(=O)c4nnc[nH]4)nc23)cn1` [Compound 8.96, 5-(5-((1R,3s,5S)-8-(4H-1,2,4-triazole-3-carbonyl)-8-azabicyclo[3.2.1]octan-3-yl)-7-amino-6-cyclopropylpyrazolo[1,5-a]pyrimidin-3-yl)pyrimidine-2-carbonitrile]?
**A.** pIC50 ([1]; Homo sapiens, PC-3, PC3 cells): 5.00 to 6.00; pIC50 ([2]; Homo sapiens, PC-3, PC3 cells): 5.00 to 6.00

**Q.** `Cc1nnc(C(=O)N2[C@@H]3CC[C@H]2C[C@H](c2nc4c(-c5ccc(-c6nc(C)c(C)s6)nc5)cnn4c(N)c2S(C)(=O)=O)C3)[nH]1` [Compound 3.197, ((1R,3s,5S)-3-(7-amino-3-(6-(4,5-dimethylthiazol-2-yl)pyridin-3-yl)-6-(methylsulfonyl)pyrazolo[1,5-a]pyrimidin-5-yl)-8-azabicyclo[3.2.1]octan-8-yl)(5-methyl-4H-1,2,4-triazol-3-yl]methanone] was tested. Which pIC50 [1, 4] did it give?
**A.** 6.00 to 7.00

**Q.** And the pIC50 [2, 4]?
**A.** 6.00 to 7.00

**Q.** How did the pIC50 [1, 3] turn out when `CC(=O)c1c([C@@H]2C[C@H]3CC[C@@H](C2)N3C(=O)c2cn[nH]c2N)nc2c(-c3ccc(C(C)(C)O)nc3)cnn2c1N` [Compound 7.15, 1-(7-amino-5-((1R,3s,5S)-8-(5-amino-1H-pyrazole-4-carbonyl)-8-azabicyclo[3.2.1]octan-3-yl)-3-(6-(2-hydroxypropan-2-yl)pyridin-3-yl)pyrazolo[1,5-a]pyrimidin-6-yl)ethanone] was run?
**A.** 6.00 to 7.00

**Q.** And the pIC50 [2, 3]?
**A.** 6.00 to 7.00

**Q.** Which results are given for `CC(=O)c1c([C@@H]2C[C@H]3CC[C@@H](C2)N3C(=O)c2cc[nH]c2)nc2c(-c3ccc(-c4ccccc4)nc3)cnn2c1N` [Compound 1.1.41, 1-(5-((1R,3s,5S)-8-(1H-pyrrole-3-carbonyl)-8-azabicyclo[3.2.1]octan-3-yl)-7-amino-3-(6-phenylpyridin-3-yl)pyrazolo[1,5-a]pyrimidin-6-yl)ethanone]?
**A.** pIC50 [1, 3]: 7.00 to 9.00; pIC50 [2, 3]: 7.00 to 9.00

**Q.** Which results are given for `CCC(O)(CC)c1ccc(-c2cnn3c(N)c(C(C)=O)c([C@@H]4C[C@H]5CC[C@@H](C4)N5C(=O)c4nnc[nH]4)nc23)cn1` [Compound 1.1.85, 1-(5-((1R,3s,5S)-8-(4H-1,2,4-triazole-3-carbonyl)-8-azabicyclo[3.2.1]octan-3-yl)-7-amino-3-(6-(3-hydroxypentan-3-yl)pyridin-3-yl)pyrazolo[1,5-a]pyrimidin-6-yl)ethanone]?
**A.** pIC50 [1, 3]: 5.00 to 6.00; pIC50 [2, 3]: 5.00 to 6.00

**Q.** How did the pIC50 [1, 3] turn out when `CC(=O)c1c([C@@H]2C[C@H]3CC[C@@H](C2)N3C(=O)c2nnc(O)[nH]2)nc2c(-c3ccc(-c4ccccc4)nc3)cnn2c1N` [Compound 1.1.40, 1-(7-amino-5-((1R,3s,5S)-8-(5-hydroxy-4H-1,2,4-triazole-3-carbonyl)-8-azabicyclo[3.2.1]octan-3-yl)-3-(6-phenylpyridin-3-yl)pyrazolo[1,5-a]pyrimidin-6-yl)ethanone] was run?
**A.** 6.00 to 7.00

**Q.** And the pIC50 [2, 3]?
**A.** 6.00 to 7.00

**Q.** `CC(=O)c1c([C@@H]2C[C@H]3CC[C@@H](C2)N3C(=O)c2nc[nH]n2)nc2c(-c3ccc(C(C)O)cc3)cnn2c1N` (stereo partly drawn) [Compound 7.20, 1-(5-((1R,3s,5S)-8-(1H-1,2,4-triazole-3-carbonyl)-8-azabicyclo[3.2.1]octan-3-yl)-7-amino-3-(4-(1-hydroxyethyl)phenyl)pyrazolo[1,5-a]pyrimidin-6-yl)ethanone] was tested. Which pIC50 [1, 3] did it give?
**A.** 7.00 to 9.00

**Q.** What about the pIC50 [2, 3] of the same compound?
**A.** 7.00 to 9.00

**Q.** How did the pIC50 [1, 4] turn out when `Cc1cnc(-c2ccc(-c3cnn4c(N)c(S(C)(=O)=O)c([C@@H]5C[C@H]6CC[C@@H](C5)N6C(=O)C5(O)CC5)nc34)cn2)s1` [Compound 3.186, ((1R,3s,5S)-3-(7-amino-6-(methylsulfonyl)-3-(6-(5-methylthiazol-2-yl)pyridin-3-yl)pyrazolo[1,5-a]pyrimidin5-yl)-8-azabicyclo[3.2.1]octan-8-yl)(1-hydroxycyclopropyl)methanone] was run?
**A.** 5.00 to 6.00

**Q.** And the pIC50 [2, 4]?
**A.** 5.00 to 6.00

**Q.** How did the pIC50 [1, 3] turn out when `CC(=O)c1c([C@@H]2C[C@H]3CC[C@@H](C2)N3C(=O)CO)nc2c(-c3cnc(C(C)(C)O)c(C)c3)cnn2c1N` [Compound 7.23, 1-((1R,3s,5S)-3-(6-acetyl-7-amino-3-(6-(2-hydroxypropan-2-yl)-5-methylpyridin-3-yl)pyrazolo[1,5-a]pyrimidin-5-yl)-8-azabicyclo[3.2.1]octan-8-yl)-2-hydroxyethanone] was run?
**A.** 6.00 to 7.00

**Q.** And the pIC50 [2, 3]?
**A.** 6.00 to 7.00

**Q.** How did the pIC50 [1, 3] turn out when `CC(=O)c1c([C@@H]2C[C@H]3CC[C@@H](C2)N3C(=O)c2cn[nH]c2N)nc2c(-c3ccc(-c4ccccc4)nc3)cnn2c1N` [Compound 1.1.141, 1-(7-amino-5-((1R,3s,5S)-8-(5-amino-1H-pyrazole-4-carbonyl)-8-azabicyclo[3.2.1]octan-3-yl)-3-(6-phenylpyridin-3-yl)pyrazolo[1,5-a]pyrimidin-6-yl)ethanone] was run?
**A.** 7.00 to 9.00

**Q.** What about the pIC50 [2, 3] of the same compound?
**A.** 7.00 to 9.00

**Q.** Which results are given for `Nc1c(S(=O)(=O)C2CC2)c([C@@H]2C[C@H]3CC[C@@H](C2)N3C(=O)c2nnc[nH]2)nc2c(-c3ccc(-c4ccccc4)nc3)cnn12` [Compound 3.160, ((1R,3s,5S)-3-(7-amino-6-(cyclopropylsulfonyl)-3-(6-phenylpyridin-3-yl)pyrazolo[1,5-a]pyrimidin-5-yl)-8-azabicyclo[3.2.1]octan-8-yl)(4H-1,2,4-triazol-3-yl)methanone]?
**A.** pIC50 [1, 4]: 7.00 to 9.00; pIC50 [2, 4]: 6.00 to 7.00

**Q.** With `CC(=O)c1c([C@@H]2C[C@H]3CC[C@@H](C2)N3C(=O)c2nnc[nH]2)nc2c(-c3ccc(-c4cc(F)cc(F)c4)nc3)cnn2c1N` [Compound 1.1.100, 1-(5-((1R,3r,5S)-8-(4H-1,2,4-triazole-3-carbonyl)-8-azabicyclo[3.2.1]octan-3-yl)-7-amino-3-(6-(3,5-difluorophenyl)pyridin-3-yl)pyrazolo[1,5-a]pyrimidin-6-yl)ethanone] as the compound, how does the pIC50 [1, 3] read?
**A.** 6.00 to 7.00

**Q.** And the pIC50 [2, 3]?
**A.** 6.00 to 7.00

**Q.** What does the source list for `CS(=O)(=O)c1c([C@@H]2C[C@H]3CC[C@@H](C2)N3C(=O)c2nnc[nH]2)nc2c(-c3ccc(-c4ccncc4)nc3)cnn2c1N` [Compound 3.64, ((1R,3s,5S)-3-(3-(2,4′-bipyridin-5-yl)-7-amino-6-(methylsulfonyl)pyrazolo[1,5-a]pyrimidin-5-yl)-8-azabicyclo[3.2.1]octan-8-yl)(4H-1,2,4-triazol-3-yl)methanone]?
**A.** pIC50 ([1]; Table 3-1, PC3 cells): 5.00 to 6.00; pIC50 ([2]; Table 3-1, PC3 cells): 5.00 to 6.00

**Q.** With `CC(=O)c1c([C@@H]2C[C@H]3CC[C@@H](C2)N3C(=O)c2nnc[nH]2)nc2c(-c3cnn(CCO)c3)cnn2c1N` [Compound 1.1.155, 1-(5-((1R,3s,5S)-8-(4H-1,2,4-triazole-3-carbonyl)-8-azabicyclo[3.2.1]octan-3-yl)-7-amino-3-(1-(2-hydroxyethyl)-1H-pyrazol-4-yl)pyrazolo[1,5-a]pyrimidin-6-yl)ethanone] as the compound, how does the pIC50 [1, 3] read?
**A.** 5.00 to 6.00

**Q.** What about the pIC50 [2, 3] of the same compound?
**A.** 5.00 to 6.00

**Q.** With `CC(=O)c1c([C@@H]2C[C@H]3CC[C@@H](C2)N3C(=O)c2nnc(C)[nH]2)nc2c(-c3ccc(-c4ccc(F)cc4F)nc3)cnn2c1N` [Compound 1.1.165, 1-(7-amino-3-(6-(2,4-difluorophenyl)pyridin-3-yl)-5-((1R,3s,5S)-8-(5-methyl-4H-1,2,4-triazole-3-carbonyl)-8-azabicyclo[3.2.1]octan-3-yl)pyrazolo[1,5-a]pyrimidin-6-yl)ethanone] as the compound, how does the pIC50 [1, 3] read?
**A.** 7.00 to 9.00

**Q.** What about the pIC50 [2, 3] of the same compound?
**A.** 7.00 to 9.00
